Results from article PMC7857480 (The Journal of Biological Chemistry, 2020).

Biological target: FigA (Francisella tularensis, UniProt Q15EH0)
Conditions: FigA alone; citrate, 2.25 mM ATP, 15 mM MgCl2, 50 mM HEPES pH 7.4, RT 2 h

Chain of FigA (Q15EH0 1-639): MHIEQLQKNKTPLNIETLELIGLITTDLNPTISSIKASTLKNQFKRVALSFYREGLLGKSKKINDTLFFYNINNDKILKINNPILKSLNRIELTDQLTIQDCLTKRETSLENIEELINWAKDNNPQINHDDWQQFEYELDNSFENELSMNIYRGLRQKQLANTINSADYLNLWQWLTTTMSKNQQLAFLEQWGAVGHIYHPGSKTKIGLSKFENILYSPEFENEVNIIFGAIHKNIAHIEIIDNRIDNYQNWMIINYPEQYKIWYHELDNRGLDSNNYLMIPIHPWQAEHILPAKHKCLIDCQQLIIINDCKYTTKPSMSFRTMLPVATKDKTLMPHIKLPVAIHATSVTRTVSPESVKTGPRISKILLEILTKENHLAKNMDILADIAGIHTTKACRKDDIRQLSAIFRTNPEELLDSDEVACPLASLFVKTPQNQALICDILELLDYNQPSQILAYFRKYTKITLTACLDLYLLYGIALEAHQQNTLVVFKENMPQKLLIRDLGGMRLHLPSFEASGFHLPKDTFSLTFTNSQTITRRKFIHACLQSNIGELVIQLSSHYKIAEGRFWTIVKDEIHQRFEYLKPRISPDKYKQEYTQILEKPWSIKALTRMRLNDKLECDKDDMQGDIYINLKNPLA

## NCCC[C@H](N)C(=O)O [L-ornithine]
  in vitro assay, LC-MS of N-citrylornithine (m/z 307.1): FigA alone assayed with citrate and L-ornithine assay were analyzed by LC-MS
